For 84 compounds, inhibition and IC50 results are on record in the Kinase Knowledgebase extract (Sharma et al. 2016).

SMILES strings stand for the structures.

The test deals with MAPK14 (human) (UniProt Q16539). Put plainly: Inhibition of MAPK14 Kinase Activity by PHAS-I Assay. To be noted: for inhibition: concentration not given here.
Sequence of MAPK14 (human) (Q16539 whole entry, looked up): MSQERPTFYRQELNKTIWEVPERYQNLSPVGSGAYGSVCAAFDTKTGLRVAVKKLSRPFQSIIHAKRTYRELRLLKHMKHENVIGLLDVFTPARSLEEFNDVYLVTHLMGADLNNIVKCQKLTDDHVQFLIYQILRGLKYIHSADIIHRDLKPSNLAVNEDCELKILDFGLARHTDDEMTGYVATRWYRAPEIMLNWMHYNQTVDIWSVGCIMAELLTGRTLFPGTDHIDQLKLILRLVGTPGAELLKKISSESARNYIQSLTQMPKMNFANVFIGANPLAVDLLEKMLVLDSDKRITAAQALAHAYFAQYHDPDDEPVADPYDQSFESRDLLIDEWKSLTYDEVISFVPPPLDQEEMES

For the compound `Cc1c(-c2ccncc2)c(-c2ccc(F)cc2)nn1CC(=O)Nc1ccccc1C(=O)NC1CCCCC1`, the inhibition turned out to be 87%.
On the same count and under the same terms, the same measure for `Cc1c(-c2ccncc2)c(-c2ccc(F)cc2)nn1CC(=O)Nc1ccccc1SCCCc1ccccc1`: 80%.
In the case of `O=C(NCCCc1[nH]nc(-c2ccc(F)cc2)c1-c1ccncc1)[C@H]1CCCN1`, the inhibition turned out to be 81%.
The same measure, in the same setting: the same measure for `Cc1c(-c2ccncc2)c(-c2ccc(F)cc2)nn1CC(=O)Nc1ccccc1Cc1ccccc1`: 92%.
The same measure, in the same setting: the same measure for `O=C(NCCCc1[nH]nc(-c2ccc(F)cc2)c1-c1ccncc1)c1ccccc1I`: 66%; for `COc1ccc(NC(=O)NCCCc2[nH]nc(-c3ccc(F)cc3)c2-c2ccncc2)cc1`: 82%; for `O=C(NCCCc1[nH]nc(-c2ccc(F)cc2)c1-c1ccncc1)N1CCOCC1`: 82%.
Still for that read-out and setting: the same measure for `Cc1c(-c2ccncc2)c(-c2ccc(F)cc2)nn1CC(=O)N[C@@H](C)c1cccc2ccccc12`: 74%.
In the case of `O=C(NCCCc1[nH]nc(-c2ccc(F)cc2)c1-c1ccncc1)c1ccno1`, the inhibition stood at 80%.
On the same count and under the same terms, under `CC(C)NC(=O)NCCCc1[nH]nc(-c2ccc(F)cc2)c1-c1ccncc1` stands 81%.
`Cc1ccc(C(=O)NCCCc2[nH]nc(-c3ccc(F)cc3)c2-c2ccncc2)cc1` showed an inhibition of 86%.
The compound `CCN(CC)C(=O)N[C@@H](Cc1ccccc1)c1[nH]nc(-c2ccc(F)cc2)c1-c1ccncc1` displayed an IC50 of 2.2 µM.
In the case of `CCN(CC)C(=O)NCCCc1[nH]nc(-c2ccc(F)cc2)c1-c1ccncc1`, the inhibition worked out at 89%.
`Cc1c(-c2ccncc2)c(-c2ccc(F)cc2)nn1CC(=O)NC(C)c1ccc(Br)cc1` (centres undefined) registered an inhibition of 71%.
On the same count and under the same terms, under `Cc1c(-c2ccncc2)c(-c2ccc(F)cc2)nn1CC(=O)N(C)Cc1ccccc1` stands 73%.
Consider `O=C(NCCCc1[nH]nc(-c2ccc(F)cc2)c1-c1ccncc1)Nc1ccc(F)cc1`, for which the inhibition worked out at 88%.
The same measure, in the same setting: the same measure for `O=C(NCc1[nH]nc(-c2ccc(F)cc2)c1-c1ccncc1)c1cc(Cl)ccc1F`: 73%.
As to `Cc1c(-c2ccncc2)c(-c2ccc(F)cc2)nn1CC(=O)Nc1ccc(Cl)nc1`, the inhibition was 94%.
`Clc1ccc(-c2n[nH]c(N3CCSCC3)c2-c2ccncc2)cc1` had an IC50 of 0.77 µM.
Consider `Cc1c(-c2ccncc2)c(-c2ccc(F)cc2)nn1CC(=O)NC1CCCCC1`, for which the inhibition came to 49%.
`CCCOC(=O)NCCCc1[nH]nc(-c2ccc(F)cc2)c1-c1ccncc1` showed an inhibition of 90%.
Same read-out and setting: under `O=S(=O)(NCCCc1[nH]nc(-c2ccc(F)cc2)c1-c1ccncc1)c1ccccc1F` stands 77%.
Still for that read-out and setting: the same measure for `Cc1c(-c2ccncc2)c(-c2ccc(F)cc2)nn1CC(=O)NC1CC1`: 75%.
The same measure, in the same setting: under `Cc1c(-c2ccncc2)c(-c2ccc(F)cc2)nn1CC(=O)N(Cc1ccco1)CC(C)C` stands 48%.
Regarding `CCOC(=O)N1CCC(Nc2n[nH]c(-c3ccc(Cl)cc3)c2-c2ccncc2)CC1`, the IC50 was > 100 µM.
As for `O=C(NCCCc1[nH]nc(-c2ccc(F)cc2)c1-c1ccncc1)c1ccccn1`, the inhibition worked out at 69%.
Consider `O=C(Nc1ccccc1F)N[C@@H](Cc1ccccc1)c1[nH]nc(-c2ccc(F)cc2)c1-c1ccncc1`, for which the IC50 was found to be 14 µM.
`O=C(NCCCc1[nH]nc(-c2ccc(F)cc2)c1-c1ccncc1)c1ccc(F)cc1` came in with an inhibition of 64%.
In turn, `COc1cccc(CC(=O)NCCCc2[nH]nc(-c3ccc(F)cc3)c2-c2ccncc2)c1` displayed an inhibition of 92%.
On the same count and under the same terms, under `CCCNC(=O)NCCCc1[nH]nc(-c2ccc(F)cc2)c1-c1ccncc1` stands 88%.
The same measure, in the same setting: the same measure for `CC(C)OC(=O)NCCCc1[nH]nc(-c2ccc(F)cc2)c1-c1ccncc1`: 89%; for `Cc1c(-c2ccncc2)c(-c2ccc(F)cc2)nn1CC(=O)Nc1ccccc1C(C)(C)C`: 84%.
Same read-out and setting: under `Cc1c(-c2ccncc2)c(-c2ccc(F)cc2)nn1CC(=O)NC1Cc2ccccc2C1` stands 69%; under `Cc1c(-c2ccncc2)c(-c2ccc(F)cc2)nn1CC(=O)NC1CCC1`, 81%; under `CCN1CCN(C(=O)Cn2nc(-c3ccc(F)cc3)c(-c3ccncc3)c2C)CC1`, 65%.
`CCN(Cc1c(F)cccc1Cl)C(=O)Cn1nc(-c2ccc(F)cc2)c(-c2ccncc2)c1C` had an inhibition of 46%.
On the same count and under the same terms, under `Cc1c(-c2ccncc2)c(-c2ccc(F)cc2)nn1CC(=O)Nc1cccc(Br)c1` stands 88%.
Turning to `O=S(=O)(NCc1[nH]nc(-c2ccc(F)cc2)c1-c1ccncc1)c1cccc2cccnc12`, the inhibition was found to be 73%.
Regarding `C=CCNC(=O)NCCCc1[nH]nc(-c2ccc(F)cc2)c1-c1ccncc1`, the inhibition came to 87%.
Still for that read-out and setting: under `Cc1c(-c2ccncc2)c(-c2ccc(F)cc2)nn1CC(=O)Nc1ccccc1Oc1ccc(Cl)cc1` stands 86%; under `COc1ccc(OC)c(NC(=O)Cn2nc(-c3ccc(F)cc3)c(-c3ccncc3)c2C)c1`, 85%.
`Cc1c(-c2ccncc2)c(-c2ccc(F)cc2)nn1CC(=O)NCC(=O)Nc1ccccc1` yielded an inhibition of 86%.
Still for that read-out and setting: the same measure for `Cc1c(-c2ccncc2)c(-c2ccc(F)cc2)nn1CC(=O)N1CCCC1`: 73%; for `Cc1c(-c2ccncc2)c(-c2ccc(F)cc2)nn1CC(=O)NC1CCCc2ccccc21` (centres undefined): 76%.
The compound `Cc1c(-c2ccncc2)c(-c2ccc(F)cc2)nn1CC(=O)Nc1ccccc1C(C)C` gave an inhibition of 94%.
Still for that read-out and setting: under `Cc1c(-c2ccncc2)c(-c2ccc(F)cc2)nn1CC(=O)Nc1ccc(C2CCCCC2)cc1` stands 87%.
Same read-out and setting: under `Cc1c(-c2ccncc2)c(-c2ccc(F)cc2)nn1CC(=O)N1CCCCC1` stands 78%.
The compound `Cc1c(-c2ccncc2)c(-c2ccc(F)cc2)nn1CC(=O)Nc1cccc(SC(F)(F)F)c1` displayed an inhibition of 82%.
The same measure, in the same setting: under `CCOC(=O)C[C@H](NC(=O)Cn1nc(-c2ccc(F)cc2)c(-c2ccncc2)c1C)C(=O)OCC` stands 37%; under `Cc1c(-c2ccncc2)c(-c2ccc(F)cc2)nn1CC(=O)N1Cc2ccsc2CC1c1ccc(Cl)cc1` (centres undefined), 33%.
Still for that read-out and setting: the same measure for `Cc1c(-c2ccncc2)c(-c2ccc(F)cc2)nn1CC(=O)NC1CCN(Cc2ccccc2)C1` (centres undefined): 73%; for `Cc1c(-c2ccncc2)c(-c2ccc(F)cc2)nn1CC(=O)NC1CCCCCC1`: 82%; for `Cc1c(-c2ccncc2)c(-c2ccc(F)cc2)nn1CC(=O)NC(Cc1ccccc1)c1ccccc1` (centres undefined): 44%.
Same read-out and setting: under `O=C(NCCCc1[nH]nc(-c2ccc(F)cc2)c1-c1ccncc1)N1CCCC1` stands 86%; under `O=C(NCCCc1[nH]nc(-c2ccc(F)cc2)c1-c1ccncc1)Nc1ccccc1`, 81%.
`CCN1CC(NC(=O)Cn2nc(-c3ccc(F)cc3)c(-c3ccncc3)c2C)CN1CC` returned an inhibition of 47%.
Still for that read-out and setting: under `Cc1c(-c2ccncc2)c(-c2ccc(F)cc2)nn1CC(=O)Nc1ccc(OCc2ccccc2)cc1` stands 82%.
`CC(=O)OC(C)(C)C(=O)NCCCc1[nH]nc(-c2ccc(F)cc2)c1-c1ccncc1` returned an inhibition of 74%.
Same read-out and setting: under `O=C(NCCCc1[nH]nc(-c2ccc(F)cc2)c1-c1ccncc1)c1cccc(Br)c1` stands 70%; under `CC(C)OC(=O)NCCc1[nH]nc(-c2ccc(F)cc2)c1-c1ccncc1`, 85%.
Regarding `CC(C)S(=O)(=O)NCCCc1[nH]nc(-c2ccc(F)cc2)c1-c1ccncc1`, the inhibition is 84%.
Compound `CCNC(=O)NCCCc1[nH]nc(-c2ccc(F)cc2)c1-c1ccncc1` had an inhibition of 89%.
Same read-out and setting: the same measure for `Cc1c(-c2ccncc2)c(-c2ccc(F)cc2)nn1CC(=O)Nc1ccc(Cl)cc1`: 88%.
Still for that read-out and setting: under `O=C(Cc1cccs1)NCCCc1[nH]nc(-c2ccc(F)cc2)c1-c1ccncc1` stands 90%.
`O=S(=O)(NCCCc1[nH]nc(-c2ccc(F)cc2)c1-c1ccncc1)c1cccs1`: the inhibition came out at 84%.
Compound `O=C(NCCCc1[nH]nc(-c2ccc(F)cc2)c1-c1ccncc1)c1ccncc1` displayed an inhibition of 77%.
Regarding `O=S(=O)(Cc1ccccc1)NCCCc1[nH]nc(-c2ccc(F)cc2)c1-c1ccncc1`, the inhibition came to 87%.
Still for that read-out and setting: under `O=C(NCCCc1[nH]nc(-c2ccc(F)cc2)c1-c1ccncc1)c1ccc(F)c(F)c1F` stands 80%; under `CCCS(=O)(=O)NCCCc1[nH]nc(-c2ccc(F)cc2)c1-c1ccncc1`, 92%.
Compound `Cc1c(-c2ccncc2)c(-c2ccc(F)cc2)nn1CC(=O)Nc1cc([N+](=O)[O-])cc([N+](=O)[O-])c1` yielded an inhibition of 90%.
Compound `COc1ccc(NC(=O)NCCc2[nH]nc(-c3ccc(F)cc3)c2-c2ccncc2)c(OC)c1` gave an inhibition of 49%.
Still for that read-out and setting: under `Cc1c(-c2ccncc2)c(-c2ccc(F)cc2)nn1CC(=O)Nc1ccc(CSc2ccc(Cl)cc2)cc1` stands 67%.
The same measure, in the same setting: the same measure for `CCOC(=O)CN(Cc1ccccn1)C(=O)Cn1nc(-c2ccc(F)cc2)c(-c2ccncc2)c1C`: 34%; for `CCCN(CCC)CC(C)NC(=O)Cn1nc(-c2ccc(F)cc2)c(-c2ccncc2)c1C` (centres undefined): 17%; for `Cc1c(-c2ccncc2)c(-c2ccc(F)cc2)nn1CC(=O)Nc1ccc(C(F)(F)F)cc1`: 81%.
On the same count and under the same terms, the same measure for `CCOC(=O)N1CCC(NC(=O)Cn2nc(-c3ccc(F)cc3)c(-c3ccncc3)c2C)CC1`: 72%; for `O=C(NCCCc1[nH]nc(-c2ccc(F)cc2)c1-c1ccncc1)Nc1ccccc1F`: 86%.
Consider `CCS(=O)(=O)NCCCc1[nH]nc(-c2ccc(F)cc2)c1-c1ccncc1`, for which the inhibition worked out at 95%.
Still for that read-out and setting: the same measure for `CC(=O)Nc1ccc(S(=O)(=O)NCc2[nH]nc(-c3ccc(F)cc3)c2-c2ccncc2)cc1`: 66%.
Compound `O=C(Nc1ccccc1)N[C@@H](Cc1ccccc1)c1[nH]nc(-c2ccc(F)cc2)c1-c1ccncc1` gave an IC50 of 2.6 µM.
`Cc1c(-c2ccncc2)c(-c2ccc(F)cc2)nn1CC(=O)NC(C)CCc1ccccc1` (centres undefined) registered an inhibition of 35%.
Consider `O=C(NCCCc1[nH]nc(-c2ccc(F)cc2)c1-c1ccncc1)c1cccnc1`, for which the inhibition was 72%.
Regarding `Cc1c(-c2ccncc2)c(-c2ccc(F)cc2)nn1CC(=O)Nc1c(Cl)cccc1Cl`, the inhibition stood at 89%.
Still for that read-out and setting: under `CC(C)C(=O)NCCCc1[nH]nc(-c2ccc(F)cc2)c1-c1ccncc1` stands 79%.

A word on the inhibition: it is how much of the control response was suppressed. Lower therefore signals little suppression. A word on the IC50: it is the midpoint of a concentration-inhibition curve.
